Molecular target: SARS-CoV-2 3CL-protease (Severe acute respiratory syndrome coronavirus 2, UniProt P0DTD1)
Experiment: SARS-CoV-2 3C-like (3CL) protease fluorescence assay (FRET)
Assay type: biochemical
Conditions: recombinant SARS-CoV-2 3CL-protease 10 nM, 30 min preincubation at RT, TAMRA-[…]-Dabcyl-OH substrate, run in duplicate
Protocol: SARS-CoV-2 3C-like (3CL) protease fluorescence assay (FRET): Recombinant SARS-CoV-2 3CL-protease was expressed and purified. TAMRA-[…]-Dabcyl-OH peptide 3CLpro substrate was synthesized. Black, low volume, round-bottom, 384 well microplates were used. In a typical assay, 0.85 μL of test compound was dissolved in DMSO then incubated with SARS-CoV-2 3CL-protease (10 nM) in 10 μL assay buffer (50 mM HEPES [pH 7.5], 1 mM DTT, 0.01% BSA, 0.01% Triton-X 100) for 30 min at RT. Next, 10 μL of 3CL-protease substrate (40 μM) in assay buffer was added and the assays were monitored continuously for 1 h in an Envision multimode plate reader operating in fluorescence kinetics mode with excitation at 540 nm and emission at 580 nm at RT. No compound (DMSO only) and no enzyme controls were routinely included in each plate. All experiments were run in duplicate. Data Analysis: SARS-CoV-2 3CL-protease enzyme activity was measured as initial velocity of the linear phase (RFU/s) and normalized to controlled samples DMSO (100% activity) and no enzyme (0% activity) to determine percent residual activity at various concentrations of test compounds (0-10 μM). Data were fitted to normalized activity (variable slope) versus concentration fit in GraphPad Prism 7 to determine IC50.

Row | SMILES | IC50 [nM]
1 | COc1cccc2oc(C(=O)N3C[C@H]4[C@@H]([C@H]3C(=O)N3C[C@]5(C[C@H]3C#N)C(=O)Nc3ccccc35)C4(C)C)cc12 [Example 3] | < 100
2 | CC1(C)[C@@H]2[C@@H](C(=O)N3C[C@]4(C[C@H]3C#N)C(=O)Nc3ccccc34)N(C(=O)c3cc4c(OC(F)F)cccc4[nH]3)C[C@@H]21 [Example 8] | 100 to 1000
3 | N#C[C@@H]1C[C@@]2(CN1C(=O)[C@@H]1[C@H]3CCC[C@H]3CN1C(=O)c1cc3c(F)cc(F)cc3[nH]1)C(=O)Nc1ccccc12 [Example 7] | 100 to 1000
4 | COc1cccc2[nH]c(C(=O)N3CC4(CC4)C[C@H]3C(=O)N3C[C@]4(C[C@H]3C#N)C(=O)Nc3ccccc34)cc12 [Example 2] | 100 to 1000
5 | COc1cccc2[nH]c(C(=O)N3C[C@@]4(C[C@H]3C(=O)N3C[C@]5(C[C@H]3C#N)C(=O)Nc3ccccc35)CC4(F)F)cc12 [Example 4] | 100 to 1000
6 | N#C[C@@H]1C[C@@]2(CN1C(=O)[C@@H]1[C@H]3CCC[C@H]3CN1C(=O)OCc1ccccc1)C(=O)Nc1ccccc12 [Example 6] | 100 to 1000
7 | COc1cccc2[nH]c(C(=O)N3C[C@@H]4CCC[C@@H]4[C@H]3C(=O)N3C[C@]4(C[C@H]3C#N)C(=O)Nc3ccccc34)cc12 [Example 1] | < 100
8 | COc1cccc2[nH]c(C(=O)N3[C@@H]4C[C@@H]4C[C@H]3C(=O)N3C[C@]4(C[C@H]3C#N)C(=O)Nc3ccccc34)cc12 [Example 5] | < 100

Source: patent US11976084B2, “Spiropyrrolidine derived antiviral agents” (Enanta Pharmaceuticals, Inc., priority 2020, dated 2024)
